In brackets after ≈: the same amount, converted by molar mass. Like-named read-outs stand apart in the source and are kept apart here.
Experiments:
[1] = 10 μM ligand, 1 μM Zn(II), pH 7.20, 0.1 M ionic strength, 25° C.; prior art ligands, literature data; cited from earlier work
[2] = system: mouse fibroblast LTK cell line; assay: Two-photon emission ratio imaging of fixed fibroblast cells; type: cell-based
Procedure: FIG. 5. Emission ratio images of fibroblast (LTK) cells treated with Zinbo-5. (A) Brightfield transmission image; (B) ratio image of the intensities at 445 nm and 402 nm; (C) ratio image following a 30 minute treatment with 10 μM zinc sulfate and 20 μM pyrithione at pH 7.4, 25° C., followed by wash with Zinbo-5 stock; (D) ratio image of the same field after a 15 minute treatment with 1 mM TPEN.
The Zinbo-5 probe was tested in the mouse fibroblast LTK cell line. Cells were fixed, treated with a saturated solution of Zinbo-5 and then imaged with two-photon excitation (TPE) laser scanning microscopy using on Zeiss 510 LSM (upright configuration). The excitation beam produced by the femtosecond pulsed Ti:sapphire laser (Tsunami, Spectra-Physics; 8 W Millennia pump) was tuned to 710 nm, (pumping power 6.5 W with 0.5 W entering the Zeiss AOM) was passed through an LSM 510 microscope with an HFT 650 dichroic (Zeiss) and focused onto coverslip adherent fibroblasts using a 63x oil-immersion objective (Zeiss). The NLO META scan head (Zeiss) allowed data collection in 10.7 nm windows centered at 445 nm and 402 nm.
Cells were imaged in the presence of Zinbo-5 to provide the contrast of unbound dye outside of the cells (FIG. 5). After imaging, the same field of cells was treated with 10 μM zinc sulfate and 20 μM pyrithione, a zinc-selective ionophore, resulting in an anticipated increase in the intracellular ratio of emissions from 445 nm and 402 nm (FIG. 5, d-f). Finally, the intracellular ratio was made equal to that of the surrounding unbound dye by treating the same field of view with TPEN (FIG. 5, g-i).
LTK cells were grown as previously published (Nasir, M. S., et al., JBIC (1999) 4:775-783). Cells grown on coverslips were fixed with 4% formaldehyde on ice for 20 minutes and washed with cold PBS before staining. […] Coverslips were attached to slides using Secure-Seal spacers (Molecular Probes) with the saturated staining solution in the spacer well. […]

[3] = Maximal water solubility (saturated staining solution); type: physicochemical; settings: PBS (saturated staining solution), PBS with DMSO stock, on ice
[4] = Calculated pZn values (-log[Zn]free) for a ligand/zinc solution; type: binding
Source text: […] […] The Zn^2+ affinity of Zinbo-5 is much higher than that of di(2-picolyl)amine (DPA), indicating—without limitation—that the phenolate oxygen and benoxazole nitrogen are likely chelating the metal as the third and fourth ligands.

[5] = Metal ion selectivity of fluorescence (ratio I443/I395) in biological buffers
Procedure: FIG. 4. Metal ion selectivity of Zinbo-5. Bars are a presentation of the fluorescence ratio I443/I395. Heavy metals (20 μM) and Na^+, K^+, Ca^2+, Mg^2+ (5 mM) were added to 1.5 μM Zinbo-5 in the presence of 10 μM EDTA.

[6] = Binding constant determination: fluorescence intensity ratio (or UV absorbance) in Zn2+/EGTA buffered solutions
Procedure: FIG. 2. (A) Emission spectra of Zinbo-5 with the excitation at 356 nm in Zn^2+/EGTA buffered system (50 mM HEPES, pH 7.20, 0.1 M KNO3; 10 mM EGTA, 1-9 mM zinc sulfate) at 0, 0.14, 0.29, 0.66, 1.1, 1.8, 2.6, 4.0, 6.1, and 11 nM free Zn^2+, respectively. (B) Plots of the fluorescence intensity ratio between 395 nm and 443 nm (I443/I395) with a best curve for a dissociation constant of 2.1±0.1×10^−9.
FIG. 3. UV determination of dissociation constant, Kd: (A) Absorption ratio between at 340 nm and at 374 nm (Abs374/Abs340) in Zn^2+-buffered solution (50 mM HEPES, pH 7.20, 0.1 M KNO3; […], 1-9 mM zinc sulfate).
A series of HEPES (2-[4-(2-hydoroxyethyl)-1-piperazinyl]ethanesulfonic acid) buffer solutions (50 mM, pH 7.20, 0.1 M KNO3) containing various amounts of ZnSO4 (0˜9.5 mM) and 10 mM of EGTA (ethylenebis(oxyethylenenitrilo) tetraacetic acid) were prepared. The concentration of free Zn^2+ was calculated with [EGTA]total, [Zn^2+]total, and K′Zn-EGTA, the apparent binding constant at a given pH and ionic strength. […]
The ratio between 395 nm and 443 nm intensities in the emission spectrum of each solution was measured with the excitation wavelength at 356 nm and was fitted to the following equation (Eq. 2). […]

[7] = heavy metals 20 μM, 1.5 μM probe, 10 μM EDTA

O=C(O)CN(CCN(CC(=O)O)CC(=O)O)CC(=O)O [EDTA]
Calculated pZn (-log[Zn]free) [1]: 14.3

O=C(O)CN(CCOCCOCCN(CC(=O)O)CC(=O)O)CC(=O)O [EGTA, ethylenebis(oxyethylenenitrilo) tetraacetic acid]
Calculated pZn (-log[Zn]free) [1]: 9.5

O=C(O)CN(CC(=O)O)CC(=O)O [NTA]
Calculated pZn (-log[Zn]free) [1]: 9.0

c1ccc(CN(CCN(Cc2ccccn2)Cc2ccccn2)Cc2ccccn2)nc1 [TPEN, N,N,N′,N′-tetrakis (2-pyridylmethyl) ethylenediamine, reference compound]
decrease of the intracellular emission ratio ([2]; LTK cells stained with Zinbo-5, zinc loaded, then excess TPEN (1 mM, 15 minute)): 30% | Calculated pZn (-log[Zn]free) [1]: 16.0

COc1cc(O)c(-c2nc3c(CNCc4ccccn4)cccc3o2)cc1OC [Zinbo-5, 2-(4,5-dimethoxy-2-hydroxyphenyl)-4-(2-pyridlmethyl)aminomethylbenzoxazole]
solubility [3]: 1.5 µM (≈ 0.587 µg/mL) | cell permeability [2]: cell permeable | average intracellular increase in the emission ratio (445 nm/402 nm) ([2]; LTK cells after 10 μM zinc sulfate and 20 μM pyrithione): ca. 15% | Calculated pZn (-log[Zn]free) ([4]; 10 μM ligand, 1 μM Zn(II), pH 7.20, 0.1 M ionic strength, 25° C., the patent's own probe): 9.3 | pZn value (-log[Zn^2+]) ([4]; aqueous solution containing 10 µM ligand and 1 µM zinc ion at pH 7.20 and 0.1 M ionic strength): 9.3 | fluorescence response to Mn^2+, Co^2+, Ni^2+, Fe^+ and Cu^2+ [5, 7]: quenched the fluorescence | fluorescence response to Zn^2+ and Cd^2+ [5, 7]: induced an emission shift | fluorescence response to Na^+, K^+, Ca^2+ and Mg^2+ ([5]; metal concentrations as high as 5 mM): no fluorescent response | Zn^2+ affinity compared with di(2-picolyl)amine (DPA) [6]: much higher | Kd ([6]; pH 7.20, fluorescence intensity ratio between 395 nm and 443 nm against log[Zn2+]free, read-out: apparent dissociation constant (Kd) for Zn^2+): 2.2 ± 0.1 nM

O=C1OC2(c3ccccc31)c1cc(Cl)c(O)c(CN(Cc3ccccn3)Cc3ccccn3)c1Oc1c2cc(Cl)c(O)c1CN(Cc1ccccn1)Cc1ccccn1 [Zinpyr-1]
Calculated pZn (-log[Zn]free) [1]: 10.1

Cc1ccc(S(=O)(=O)Nc2cc(OCC(=O)O)cc3ccc(C)nc23)cc1 [Zinquin acid]
Calculated pZn (-log[Zn]free) [1]: 9.3

O=C(O)c1cc(NCCN(Cc2ccccn2)Cc2ccccn2)ccc1-c1c2ccc(=O)cc-2oc2cc(O)ccc12 [ZnAF-1]
Calculated pZn (-log[Zn]free) [1]: 10.1

carbonic anhydrase
Calculated pZn (-log[Zn]free) [1]: 12.4
